Format in all cases: physicochemical
A short description of data set [1]: Visible light transmittance of chloroform solution. The conditions noted are these: spectrum converted to transmittance 10% at near-infrared maximum absorption wavelength. The procedure:
The visible light transmittance of the phthalocyanine-based compound of the present invention and the comparative example compounds was measured by the following measurement method.
Each of the phthalocyanine compounds ([…]) and approximately 90 mL of chloroform were put into a 100 mL volumetric flask, and the solution in the flask was irradiated with ultrasonic waves for 30 minutes and left to stand for 2 hours at room temperature. Then, chloroform was added thereto such that the meniscus of the solution matched up with the calibration mark on the volumetric flask, thereby preparing a 10 mg/L phthalocyanine solution. The prepared solution was put into a 1 cm×1 cm cell made of PYREX (registered trademark), and the absorption spectrum thereof was measured using a spectrophotometer (produced by Hitachi, Ltd.: Spectrophotometer U-3500).
The absorption spectrum measured as above was converted such that the absorbance became 1.0, that is, the transmittance became 10% at the maximum absorption wavelength in a near-infrared range, thereby obtaining a transmission spectrum. […] At 460 nm, the transmittance of the compound of the present invention was approximately the same as the transmittance of Comparative Examples 1 and 2.

Data set [2] can be described thus: Absorption spectrum of toluene solution (maximum absorption, gram absorption coefficient). The conditions noted are these: for gram absorption coefficient: at maximum absorption. The procedure: A toluene solution of the compound obtained in this way had maximum absorption at 734.0 nm, and the gram absorption coefficient thereof was 1.21×10^5 mL/g·cm. The absorption spectrum chart thereof is illustrated in FIG. 1.

A short description of data set [3]: Visible light transmittance of laminated glass sample. The conditions noted are these: 380 to 780 nm, JIS R3212. The procedure: The phthalocyanine-based compound (Specific Example (1)-30) produced in Example 1 (0.013 g) was dissolved in 40 g of triethylene glycol-di-2-ethylhexanoate as an organic ester plasticizer. The obtained solution was added to 100 g of a polyvinyl butyral resin (trade name: BH-3, produced by SEKISUI CHEMICAL CO., LTD.), thoroughly melted and kneaded using a mixing roll, and extruded using an extruder, thereby obtaining an interlayer having a thickness of 0.76 mm.
The interlayer was cut in size of 100 mm×100 mm, interposed between heat ray absorbing glass plates (100 mm (length)×100 mm (width)×2.0 mm (thickness)) prepared based on JIS R3208, put into a rubber bag, and deaerated for 20 minutes at a degree of vacuum of 2.6 kPa. Then, the deaerated laminate was moved into an oven and further hold for 30 minutes at 90° C. to vacuum press. Thereafter, the laminate was compressed for 20 minutes in an autoclave under the condition of a temperature of 130° C. and a pressure of 1.3 MPa, thereby obtaining a laminated glass sample.
By using U-3500 type recording spectrophotometer produced by Hitachi, Ltd. as a measurement instrument, the visible light transmittance of the laminated glass samples at a wavelength of 380 to 780 nm was measured based on JIS R3212 “Test methods of safety glazing materials for road vehicles”.

The record followed here is patent US11015061B2, “Phthalocyanine-based compound and uses of same” (YAMAMOTO CHEMICALS, INC., priority 2017, dated 2021).

Consider `COc1cccc(OC)c1OCCCCc1ccc(CCCCOc2c(OC)cccc2OC)c2c1-c1nc-2nc2[n-]c(nc3nc(nc4[n-]c(n1)c1c(CCCCOc5c(OC)cccc5OC)ccc(CCCCOc5c(OC)cccc5OC)c41)-c1c(CCCCOc4c(OC)cccc4OC)ccc(CCCCOc4c(OC)cccc4OC)c1-3)c1c(CCCCOc3c(OC)cccc3OC)ccc(CCCCOc3c(OC)cccc3OC)c21.[Cu+2]` [Specific Example (1)-45], for which, in data set [1], the “Transmittance (%) 460 nm” value was determined as 99.9% and the “Transmittance (%) 610 nm” value was found to be 89.5%. Besides, in data set [2], the maximum absorption is recorded as 706.5 nm and the gram absorption coefficient is 60100 mL/g/cm. Also, the Visible light transmittance in data set [3] turned out to be 77.4%.
The corresponding values for `COc1cccc(OC)c1OCCCCc1ccc(CCCCOc2c(OC)cccc2OC)c2c1-c1nc-2nc2[n-]c(nc3nc(nc4[n-]c(n1)c1c(CCCCOc5c(OC)cccc5OC)ccc(CCCCOc5c(OC)cccc5OC)c41)-c1c(CCCCOc4c(OC)cccc4OC)ccc(CCCCOc4c(OC)cccc4OC)c1-3)c1c(CCCCOc3c(OC)cccc3OC)ccc(CCCCOc3c(OC)cccc3OC)c21.[O]=[V+2]` [Specific Example (1)-44] are 98.3%, 89.0%, 734.5 nm, 67500 mL/g/cm and 77.9%.
In the case of `[O]=[V+2].c1ccc(OCCOCCCCc2ccc(CCCCOCCOc3ccccc3)c3c2-c2nc-3nc3[n-]c(nc4nc(nc5[n-]c(n2)c2c(CCCCOCCOc6ccccc6)ccc(CCCCOCCOc6ccccc6)c52)-c2c(CCCCOCCOc5ccccc5)ccc(CCCCOCCOc5ccccc5)c2-4)c2c(CCCCOCCOc4ccccc4)ccc(CCCCOCCOc4ccccc4)c32)cc1` [Specific Example (1)-38], in data set [1], the “Transmittance (%) 460 nm” value turned out to be 98.3% and the “Transmittance (%) 610 nm” value was determined as 88.6%. Moreover, in data set [2], the maximum absorption came to 735.0 nm and the gram absorption coefficient turned out to be 71600 mL/g/cm. This compound also displayed a Visible light transmittance in data set [3] of 77.8%.
The corresponding values for `Fc1ccccc1OCCCCc1ccc(CCCCOc2ccccc2F)c2c1-c1nc-2nc2[n-]c(nc3nc(nc4[n-]c(n1)c1c(CCCCOc5ccccc5F)ccc(CCCCOc5ccccc5F)c41)-c1c(CCCCOc4ccccc4F)ccc(CCCCOc4ccccc4F)c1-3)c1c(CCCCOc3ccccc3F)ccc(CCCCOc3ccccc3F)c21.[O]=[V+2]` [Specific Example (1)-43] are 97.6%, 88.0%, 735.5 nm, 78900 mL/g/cm and 77.6%.
The corresponding values for `CC(C)(C)c1ccc(OCCCCc2ccc(CCCCOc3ccc(C(C)(C)C)cc3)c3c2-c2nc-3nc3[n-]c(nc4nc(nc5[n-]c(n2)c2c(CCCCOc6ccc(C(C)(C)C)cc6)ccc(CCCCOc6ccc(C(C)(C)C)cc6)c52)-c2c(CCCCOc5ccc(C(C)(C)C)cc5)ccc(CCCCOc5ccc(C(C)(C)C)cc5)c2-4)c2c(CCCCOc4ccc(C(C)(C)C)cc4)ccc(CCCCOc4ccc(C(C)(C)C)cc4)c32)cc1.[O]=[V+2]` [Specific Example (1)-42] are 97.9%, 88.5%, 734.5 nm, 71000 mL/g/cm and 77.7%.
Regarding `COCc1ccc(COC)c2c1-c1nc-2nc2[n-]c(nc3nc(nc4[n-]c(n1)c1c(COC)ccc(COC)c41)-c1c(COC)ccc(COC)c1-3)c1c(COC)ccc(COC)c21.[O]=[V+2]` [Comparative Example Compound (a), reference compound], in data set [1], the “Transmittance (%) 460 nm” value is recorded as 97.9% and the “Transmittance (%) 610 nm” value is 86.6%. In addition, in data set [2], the maximum absorption is 733.0 nm and the gram absorption coefficient is 130000 mL/g/cm. This compound showed a Visible light transmittance in data set [3] of 75%.
The matching figures for `[O]=[V+2].c1ccc(OCCCCc2ccc(CCCCOc3ccccc3)c3c2-c2nc-3nc3[n-]c(nc4nc(nc5[n-]c(n2)c2c(CCCCOc6ccccc6)ccc(CCCCOc6ccccc6)c52)-c2c(CCCCOc5ccccc5)ccc(CCCCOc5ccccc5)c2-4)c2c(CCCCOc4ccccc4)ccc(CCCCOc4ccccc4)c32)cc1` [Specific Example (1)-37]: 98.0%, 88.1%, 735.5 nm, 86300 mL/g/cm and 77.9%.
As for `COCCCCc1ccc(CCCCOC)c2c1-c1nc-2nc2[n-]c(nc3nc(nc4[n-]c(n1)c1c(CCCCOC)ccc(CCCCOC)c41)-c1c(CCCCOC)ccc(CCCCOC)c1-3)c1c(CCCCOC)ccc(CCCCOC)c21.[O]=[V+2]` [Specific Example (1)-30], in data set [1], the “Transmittance (%) 460 nm” value stood at 98.1% and the “Transmittance (%) 610 nm” value came out at 88.4%. For the same compound, in data set [2], the maximum absorption came out at 734.0 nm and the gram absorption coefficient turned out to be 121000 mL/g/cm. Also, the Visible light transmittance in data set [3] was 78.1%.
Regarding `CCOCCCCc1ccc(CCCCOCC)c2c1-c1nc-2nc2[n-]c(nc3nc(nc4[n-]c(n1)c1c(CCCCOCC)ccc(CCCCOCC)c41)-c1c(CCCCOCC)ccc(CCCCOCC)c1-3)c1c(CCCCOCC)ccc(CCCCOCC)c21.[O]=[V+2]` [Specific Example (1)-33], in data set [1], the “Transmittance (%) 460 nm” value is given as 98.1% and the “Transmittance (%) 610 nm” value is reported as 88.3%. In data set [2], this compound showed a maximum absorption of 734.0 nm and a gram absorption coefficient of 119000 mL/g/cm. The compound also displayed a Visible light transmittance in data set [3] of 77.5%.
The matching figures for `COCCCCc1ccc(CCCCOC)c2c1-c1nc-2nc2[n-]c(nc3nc(nc4[n-]c(n1)c1c(CCCCOC)ccc(CCCCOC)c41)-c1c(CCCCOC)ccc(CCCCOC)c1-3)c1c(CCCCOC)ccc(CCCCOC)c21.[Cu+2]` [Specific Example (1)-31]: 99.2%, 88.3%, 705.5 nm, 78900 mL/g/cm and 77.7%.
The corresponding values for `COc1cccc(OCCCCc2ccc(CCCCOc3cccc(OC)c3)c3c2-c2nc-3nc3[n-]c(nc4nc(nc5[n-]c(n2)c2c(CCCCOc6cccc(OC)c6)ccc(CCCCOc6cccc(OC)c6)c52)-c2c(CCCCOc5cccc(OC)c5)ccc(CCCCOc5cccc(OC)c5)c2-4)c2c(CCCCOc4cccc(OC)c4)ccc(CCCCOc4cccc(OC)c4)c32)c1.[Cu+2]` [Specific Example (1)-40] are 99.4%, 88.0%, 706.5 nm, 67800 mL/g/cm and 77.9%.
The corresponding values for `COc1cccc(OCCCCc2ccc(CCCCOc3cccc(OC)c3)c3c2-c2nc-3nc3[n-]c(nc4nc(nc5[n-]c(n2)c2c(CCCCOc6cccc(OC)c6)ccc(CCCCOc6cccc(OC)c6)c52)-c2c(CCCCOc5cccc(OC)c5)ccc(CCCCOc5cccc(OC)c5)c2-4)c2c(CCCCOc4cccc(OC)c4)ccc(CCCCOc4cccc(OC)c4)c32)c1.[O]=[V+2]` [Specific Example (1)-39] are 97.7%, 88.1%, 735.5 nm, 74000 mL/g/cm and 78%.
